The record followed here is patent publication US7405228B2, “Antibacterial cyano-(substituted)-methylenepiperidinophenyl oxazolidinones targeting multiple ribonucleoprotein sites” (Wockhardt Limited, priority 2002, dated 2008).

The compound `CS(=O)(=O)OC[C@H]1CN(c2ccc(N3CCC(=CC#N)CC3)c(F)c2)C(=O)O1` [Example 54, (R)-{3-[4-(4-cyanomethylidene-piperidin-1-yl)-3-fluorophenyl]-2-oxo-oxazolidin-5-ylmethyl}-methanesulphonate] had a melting point of 126 to 128 °C. The result for `CC(C)COC(=O)NC[C@H]1CN(c2ccc(N3CC/C(=C\C#N)C(F)C3)c(F)c2)C(=O)O1` (stereo partly drawn) [Example 58, (S)-N-{3-[4-(4-cyanomethylidene-3-fluoropiperidin-1-yl)-3-fluorophenyl]-2-oxo-oxazolidin-5-ylmethyl}-isobutylcarbamate] reads 162 to 164 °C; that for `CS(=O)(=O)OC[C@H]1CN(c2ccc(N3CC/C(=C\C#N)C(F)C3)c(F)c2)C(=O)O1` (stereo partly drawn) [Example 59, (R)-{3-[4-(4-cyanomethylidene-3-fluoropiperidin-1-yl)-3-fluorophenyl]-2-oxo-oxazolidin-5-ylmethyl}-methanesulphonate], 116 to 118 °C. As for `CC1CN(c2ccc(N3C[C@H](CNC=O)OC3=O)cc2F)CC/C1=C\C#N` (stereo partly drawn) [Example 62, (S)-N-{3-[4-(4-cyanomethylidene-3-methylpiperidin-1-yl)-3-fluorophenyl]-2-oxo-oxazolidin-5-ylmethyl}-formamide], the melting point fell in the range of 98 to 100 °C. Next, `CC(=O)NC[C@H]1CN(c2ccc(N3CC/C(=C\C#N)C(C)C3)c(F)c2)C(=O)O1` (stereo partly drawn) [Example 63, (S)-N-{3-[4-(4-cyanomethylidene-3-methylpiperidin-1-yl)-3-fluorophenyl]-2-oxo-oxazolidin-5-ylmethyl}-acetamide]: 152 to 153 °C; `CC1CN(c2ccc(N3C[C@H](CNC(=O)CC#N)OC3=O)cc2F)CC/C1=C\C#N` (stereo partly drawn) [Example 65, (S)-N-{3-[4-(4-cyanomethylidene-3-methylpiperidin-1-yl)-3-fluorophenyl]-2-oxo-oxazolidin-5-ylmethyl}-2-cyanoacetamide]: 102 to 104 °C; `CC1CN(c2ccc(N3C[C@H](CNc4nccs4)OC3=O)cc2F)CC/C1=C\C#N` (stereo partly drawn) [Example 66, (S)-2-{3-[4-(4-cyanomethylidene-3-methylpiperidin-1-yl)-3-fluorophenyl]-2-oxo-oxazolidin-5-ylmethylamino}-1,3-thiazole]: 75 to 77 °C. The result for `CC(=O)NC[C@H]1CN(c2ccc(N3CC/C(=C/C#N)C(C)(C)C3)c(F)c2)C(=O)O1` [Example 70, (S)-N-{3-[4-(4-cyanomethylidene-3,3-dimethylpiperidin-1-yl)-3-fluorophenyl]-2-oxo-oxazolidin-5-ylmethyl}-acetamide] reads 150 to 152 °C; that for `CC(=O)NC[C@H]1CN(c2ccc(N3CCC(=C(C)C#N)CC3)cc2)C(=O)O1` [Example 72, (S)-N-{3-[4-(4-(1-cyanoethylidene)-piperidin-1-yl)-phenyl]-2-oxo-oxazolidin-5-ylmethyl}-acetamide], 94 to 96 °C.

Turning to `CC(C#N)=C1CCN(c2ccc(N3C[C@H](CNC=O)OC3=O)cc2F)CC1` [Example 73, (S)-N-{3-[4-(4-(1-cyanoethylidene)-piperidin-1-yl)-3-fluorophenyl]-2-oxo-oxazolidin-5-ylmethyl}-formamide], the melting point lay in the range of 188 to 190 °C.

Compound `CC(C#N)=C1CCN(c2ccc(N3C[C@H](CNC(=O)CC#N)OC3=O)cc2F)CC1` [Example 75, (S)-N-{3-[4-(4-(1-cyanoethylidene)-piperidin-1-yl)-3-fluorophenyl]-2-oxo-oxazolidin-5-ylmethyl}-2-cyanoacetamide] came in with a melting point of 194 to 196 °C.

`CC(C#N)=C1CCN(c2ccc(N3C[C@H](CNC(=O)CN)OC3=O)cc2F)CC1` [Example 76, (S)-N-{3-[4-(4-(1-cyanoethylidene)-piperidin-1-yl)-3-fluorophenyl]-2-oxo-oxazolidin-5-ylmethylamino}-carboxymethylamine] had a melting point of 141 to 142 °C.

As a reminder, the melting point is the temperature, or range, at which the solid turns liquid.
